Measured values taken from publication PMC6771811, “The structure of a GH149 β‐(1 → 3) glucan phosphorylase reveals a new surface oligosaccharide binding site and additional domains that are absent in the disaccharide‐specific GH94 glucose‐β‐(1 → 3)‐glucose (laminaribiose) phosphorylase” (Proteins, 2019).

Target: T1, Pro_7066 (uncultured bacterium, UniProt Z9M604V374)
T1 construct: His6-tagged, pET28a, E. coli BL21 (DE3); tag removal not mentioned; 130-kDa chain, homodimer; domains span residues 1-1156; GH149
T1 sequence (Z9M604V374 20-1175): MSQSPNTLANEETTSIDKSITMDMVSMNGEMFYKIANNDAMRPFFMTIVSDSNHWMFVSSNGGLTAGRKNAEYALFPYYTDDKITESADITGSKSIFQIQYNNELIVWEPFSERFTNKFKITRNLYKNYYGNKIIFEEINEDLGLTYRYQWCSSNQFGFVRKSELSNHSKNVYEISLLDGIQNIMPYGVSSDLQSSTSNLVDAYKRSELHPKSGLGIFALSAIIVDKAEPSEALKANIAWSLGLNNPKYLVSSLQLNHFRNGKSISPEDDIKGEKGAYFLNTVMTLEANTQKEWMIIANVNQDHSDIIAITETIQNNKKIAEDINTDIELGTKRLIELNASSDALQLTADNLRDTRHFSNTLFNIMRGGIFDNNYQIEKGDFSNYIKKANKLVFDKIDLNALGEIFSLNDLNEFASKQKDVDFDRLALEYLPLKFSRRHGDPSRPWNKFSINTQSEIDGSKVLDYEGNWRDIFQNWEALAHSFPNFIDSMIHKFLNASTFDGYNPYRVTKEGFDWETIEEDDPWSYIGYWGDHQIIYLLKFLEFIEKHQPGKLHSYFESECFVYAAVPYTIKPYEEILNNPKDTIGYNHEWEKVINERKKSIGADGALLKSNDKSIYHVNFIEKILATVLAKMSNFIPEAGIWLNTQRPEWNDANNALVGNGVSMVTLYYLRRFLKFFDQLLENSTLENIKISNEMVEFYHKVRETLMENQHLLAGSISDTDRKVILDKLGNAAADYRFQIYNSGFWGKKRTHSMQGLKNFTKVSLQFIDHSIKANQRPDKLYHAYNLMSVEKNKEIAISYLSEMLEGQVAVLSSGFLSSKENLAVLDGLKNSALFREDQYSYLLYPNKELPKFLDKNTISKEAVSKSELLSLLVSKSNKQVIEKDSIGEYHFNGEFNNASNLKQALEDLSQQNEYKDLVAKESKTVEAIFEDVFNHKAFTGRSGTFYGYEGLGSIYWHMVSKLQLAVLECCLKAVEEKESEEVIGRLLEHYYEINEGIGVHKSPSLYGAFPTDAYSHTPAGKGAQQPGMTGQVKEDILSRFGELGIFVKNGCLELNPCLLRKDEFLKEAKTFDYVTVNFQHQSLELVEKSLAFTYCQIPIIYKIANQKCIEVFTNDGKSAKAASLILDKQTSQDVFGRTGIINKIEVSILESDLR
Assay: X-ray crystal structure (co-crystallization), […] Å
Conditions: 8 mM G6, pH 9.0; surface binding site on catalytic domain, ~30 Å from active site; active site holds bicine and sulfate

Structure (SMILES): OC[C@H]1O[C@@H](O[C@@H]2[C@@H](O)[C@H](O[C@@H]3[C@@H](O)[C@H](O[C@@H]4[C@@H](O)[C@H](O[C@@H]5[C@@H](O)[C@H](O[C@H]6[C@H](O)[C@@H](CO)OC(O)[C@@H]6O)O[C@H](CO)[C@H]5O)O[C@H](CO)[C@H]4O)O[C@H](CO)[C@H]3O)O[C@H](CO)[C@H]2O)[C@H](O)[C@@H](O)[C@@H]1O (stereo partly shown) [G6, laminarihexaose]
- X-ray crystal structure (co-crystallization), 2.25 Å: G6 bound to a SBS located on the solvent‐exposed surface of the catalytic domain
